Test results from patent US8206732B2, “Pyrithione biocides enhanced by silver, copper, or zinc ions” (Arch Chemicals, Inc., priority 1999, dated 2012).

How the values were obtained:
Fusarium sp. = test: MIC in Tryptic Soy Broth, microtiter (Example 1); type: cell-based; details: TSB, 28° C., incubated 5 days; single agent (NaPT without Cu)
Protocol: Equal volumes of bacterial suspension (10^6 bacteria per milliliter of TSB) containing Pseudomonas aeruginosa ATCC 9027 or fungal spore suspension (10^5 spores per milliliter of TSB) containing Aspergillus niger ATCC 6275 or species of Fusarium and Cephalosporium isolated from contaminated metalworking fluid were added to each microtiter plate well, and the plates were incubated at 28° C. Controls were prepared for cultures inoculated into TSB with and without Cu (II).

Cephalosporium sp. = test: MIC in Tryptic Soy Broth, microtiter (Example 1); type: cell-based; details: TSB, 28° C., incubated 5 days; single agent (NaPT without Cu)
[1] = test system: Fusarium sp. and Cephalosporium sp.; test: Challenge test in metalworking fluid emulsion, fungal viable plate counts (Example 4, FIG. 2); type: cell-based; details: 250 ppm (v/v) NaPT (40% active), 10 ppm Cu (II) or Zn(II); challenged twice over 40 days
Protocol: An emulsion was prepared from a 5% dilution of a concentrate, consisting of mineral oil (83.5%), sulfonated hydrocarbon (10.7%), oleic acid (1.0%), triethanolamine (0.8%), methyl tallowate (3.0%), and propylene glycol ether (1.0%) and dispensed into Erlenmeyer flasks. Each sample was challenged twice over a period of 40 days with 10^7 calls of bacteria and 10^5 fungal spores per milliliter of emulsion. The challenge consisted of seven strains of bacteria and 2 strains of fungi originally isolated from contaminated metalworking fluid: Pseudomonas rubescens NCIMB 12202, Pseudomonas stutzeri sp., Pseudomonas fluorescens NCIMB 12202, Pseudomonas aeruginosa CIMB 6749, Pseudomonas olevorans NCIMB 6576, Alcaligenes faecalis sp., Citrobacter freundii CIMB 12203, Fusarium sp., and Cephalosporium sp. The fluids were agitated continuously on a rotary shaker, and surviving bacteria and fungi were enumerated periodically by viable plate counts on Tryptic Soy Agar.

[2] = test system: seven strains of bacteria isolated from contaminated metalworking fluid; test: Challenge test in metalworking fluid emulsion, bacterial viable plate counts (Example 4, FIG. 1); type: cell-based, Pseudomonas spp., Alcaligenes faecalis, Citrobacter freundii; details: 250 ppm (v/v) NaPT (40% active), 10 ppm Cu (II) or Zn(II); challenged twice over 40 days
[3] = test system: Aspergillus niger ATCC 6275; test: MIC in Tryptic Soy Broth, microtiter (Example 1); type: cell-based; details: TSB, 28° C., incubated 7-8 days; single agent (NaPT without Cu)
[4] = test system: Pseudomonas aeruginosa ATCC 9027; test: MIC in Tryptic Soy Broth, microtiter (Example 1); type: cell-based; details: TSB, 28° C., incubated 5-6 days; single agent (NaPT without Cu)
[5] = test system: Pseudomonas aeruginosa 9027; test: Checkerboard MIC test, pyrithiones with silver salts; type: cell-based; details: silver ion alone or in the inhibitory mixture; TSB pH 7.3, 35° C., 1 to 2 days
[6] = test system: Staphylococcus aureus 27217; test: as above; type: cell-based; details: silver ion alone or in the inhibitory mixture; TSB pH 7.3, 35° C., 1 to 2 days
Pityrosporum ovale 1452 = test: as above; type: cell-based; details: silver ion alone or in the inhibitory mixture; Ushijima Medium pH 5.5, 35° C., 1 to 2 days
Candida albicans 10251 = test: as above; type: cell-based; details: silver ion alone or in the inhibitory mixture; TSB pH 7.3, 35° C., 1 to 2 days
Escherichia coli 10536 = test: as above; type: cell-based; details: silver ion alone or in the inhibitory mixture; TSB pH 7.3, 35° C., 1 to 2 days

Row | SMILES | MIC (Fusarium sp.) | MIC (Cephalosporium sp.) | antifungal efficacy in a metalworking fluid (FIG. 2) [1] | antibacterial efficacy in a metalworking fluid (FIG. 1) [2] | MIC [3] | MIC [4] | MIC Ag^+1 Ion [5] | MIC Ag^+1 Ion [6] | MIC Ag^+1 Ion (Pityrosporum ovale 1452) | MIC Ag^+1 Ion (Candida albicans 10251) | MIC Ag^+1 Ion (Escherichia coli 10536)
1 | O.O.O.O.O.O=S(=O)([O-])[O-].[Cu+2] [Cu (II), CuSO4.5H2O] | >0.5 ppm | >0.5 ppm | little effect on reducing the growth of fungi | significantly reduced bacterial counts until the second challenge | >0.5 ppm | >0.5 ppm |  |  |  |  | 
2 | [Cl][Ag] [AgCl2, AgCl] |  |  |  |  |  |  | 3.8 ppm | 9.5 ppm | 1.2 ppm | 9.8 ppm | 18.8 ppm
